Laboratory results published in US5536740A, “Skin care compositions containing dimethyl imidazolidinone and retinol or retinyl ester” (priority 1995, dated 1996).

Experiments:
Human keratinocytes = test: 3H-thymidine incorporation assay of keratinocyte proliferation; assay type: cell-based
Method: (§1) Human keratinocytes, isolated from neonatal foreskin by trypsin treatment were grown in Dulbecco Modification Eagle (DME) Hams F12 (1:1) medium/10% fetal calf serum in the presence of irradiated 3T3 mouse fibroblasts for establishing dividing keratinocyte colonies. Cells were grown under the above condition until their second passage and kept frozen for future use. […] On day 7, when the cells were 80-90% confluent, they were trypsinized and plated in the serum-free medium for the various experiments.
^3 H-Thymidine Incorporation and Keratinocyte Proliferation
The incorporation of ^3 H-thymidine by cultured keratinocytes was used as an assay of keratinocyte proliferation. Thymidine is one of four deoxynucleosides which are the monomeric units of DNA, the universal library of genetic information in the animal kingdom. Prior to cell division of a somatic cell such as a keratinocyte, the complete genome of the cell undergoing cell division is replicated. This involves large scale DNA synthesis by the cell and enables both daughter cells to receive identical copies of the genetic material. When ^3 H-thymidine is included in the culture media of keratinocytes which are synthesizing DNA in preparation for cell division then the labelled nucleoside is incorporated into the newly synthesized DNA. The extent of incorporation of ^3 -thymidine into a population of cells is proportional to the rate of DNA synthesis by this population of cells and therefore an indication of their cellular proliferation.
Keratinocytes (that were cultured as described above) were plated in 24 well plates at a density of 40,000 cells per well in 1 ml media. After incubation for four days or until the cells were 60-70% confluent, the media was changed. Test compounds were added (in triplicate) to the wells 24 hours after the media change, and four hours later 1 μCi^3 H-Thymidine in 50 μl media was added per well. Cells were incubated for a further 24 hours. Media was removed from the cells, 10% ice cold trichloroacetic acid (TCA) added and plates were incubated on ice for 30 minutes. Cells were washed five times with 5% TCA and allowed to dissolve in 500 μl 0.1M NaOH for at least one hour (usually overnight). The preparations were neutralized with 0.1M HCl; 50 μl of the cell preparation was used to determine total protein content. Disintegrations per minute (DPM) from a H labelling of DNA was determined by liquid scintillation counting of 900 μl of the cell preparation. Thymidine incorporation results were expressed as DPM/μg protein.

[1] = test system: TGase I in human keratinocytes; test: ELISA based transglutaminase I (TGase I) assay of keratinocyte differentiation; assay type: cell-based
Method: as §1
Transglutaminase Assay and Keratinocyte Differentiation
During the process of terminal differentiation in the epidermis, a 15 nm thick layer of protein, known as the cornified envelope (CE) is formed on the inner surface of the cell periphery. The CE is composed of numerous distinct proteins which have been cross-linked together by the formation of N^ε -(γ-glutamyl)lysine isodipeptide bonds catalyzed by the action of at least two different transglutaminases (TGases) expressed in the epidermis. TGase 1 is expressed in abundance in the differentiated layers of the epidermis, especially the granular layer, but is absent in the undifferentiated basal epidermis. Thus TGase I is a useful marker of epidermal keratinocyte differentiation with high TGase I levels indicating a more differentiated state. An ELISA based TGase I assay, using a TGase I antibody, was used to assess the state of differentiation of the cultured keratinocytes in the examples that follow.
Keratinocytes (cultured as described above) were plated in 96 well plates at a density of 3,000 cells per well in 200 μl media. After incubation for four days the media was changed to media containing test compounds (six replicates per test). The cells were cultured for a further 72 hours after which time the media was aspirated and the plates stored at -70° C. Plates were removed from the freezer, and the cells washed with PBS. 100 μl sterile water was added and the cells were freeze fractured by freezing at -70° C. then thawing. The cells were incubated for one hour at room temperature (R/T) with PBS/3% BSA (wash buffer, bovine serum albumin), then rinsed with a fresh aliquot of wash buffer. Cells were incubated with 50 μl of primary antibodies monoclonal anti-human transglutaminase (IgG) obtained from Amersham (mouse) diluted 1:300 in wash buffer for one hour, 37° C. then rinsed two times with wash buffer. Cells were then incubated with 50 μl of secondary antibody (Feb fragment, peroxidase conjugated anti-mouse IgG obtaining from Amersham) diluted 1:200 in wash buffer for one hour at 37° C., then rinsed two times with wash buffer. Cells were incubated with substrate solution (4 mg o-phenylene diamine and 3.3 μl 30% H2 O2 in 10 ml 0.1M citrate buffer pH 5.0) for five minutes, R/T, in darkness (under aluminum foil). The reaction was stopped by the addition of 50 μl 4N […]. The absorbance of samples was read at 492 nm in the plate reader. Out of the six replicates, four were treated with both antibodies, two were treated only with the secondary antibody (i.e., to determine background binding of enzyme conjugated Ab). TGase levels were determined by subtracting background from the readings from each treatment and determining mean ±s.d. for the replicates exposed to both Ab.
The level of TGase-1 was normalized to DNA content of the cells in the same well thus eliminating variation due to differences in cell number. DNA quantitation is a particularly useful indicator of cell number, including keratinocyte cell number, because each cell has to all intents and purposes an identical genome and therefore an identical quantity of DNA. The total DNA content of a well of cells therefore is directly proportional to the cell number in that well. Quantitation of DNA was used to normalize the TGase data to cell number.
Keratinocytes were plated in 96 well plates at a density of 3,000 cells per well in […] media.

CC1=C(/C=C/C(C)=C/C=C/C(C)=C/CO)C(C)(C)CCC1 [ROH, Retinol]
effect on keratinocyte proliferation (in words) (Human keratinocytes): completely ineffective at increasing keratinocyte proliferation | mean Thymidine incorp./μg protein ± s.d (Human keratinocytes; 2.5 × 10^-7 M, 24 hours, n = 3): 2218 ± 73 DPM/μg protein | mean Thymidine incorp./μg protein ± s.d (Human keratinocytes; 2.5 × 10^-7 M, 24 hours, n = 3, listed as Retinol): 2218 ± 79 DPM/μg protein | mean Thymidine incorp./μg protein ± s.d (Human keratinocytes; 2.5 × 10^-8 M, 24 hours, n = 3 (Examples 1-3)): 2034 ± 46 DPM/μg protein | mean Thymidine incorp./μg protein ± s.d (Human keratinocytes; 2.5 × 10^-9 M, 24 hours, n = 3): 1977 ± 19 DPM/μg protein | activity at 0.25 µM (Human keratinocytes; Homo sapiens, Keratinocyte, 2.5 × 10^-7 M, 24 hours, n = 3, read-out: mean Thymidine incorp./μg protein (% control)): 106% | activity at 0.025 µM (Human keratinocytes; Homo sapiens, Keratinocyte, 2.5 × 10^-8 M, 24 hours, n = 3 (Examples 1-3), read-out: mean Thymidine incorp./μg protein (% control)): 97% | activity at 0.0025 µM (Human keratinocytes; Homo sapiens, Keratinocyte, 2.5 × 10^-9 M, 24 hours, n = 3, read-out: mean Thymidine incorp./μg protein (% control)): 94% | mean TGase/DNA × 10^-4 ± s.d ([1]; 2.5 × 10^-7 M, normalized to DNA, 72 hours, n = 3): 1.14 ± 0.22 × 10^-4 | mean TGase/DNA × 10^-4 ± s.d ([1]; 2.5 × 10^-8 M, normalized to DNA, 72 hours, n = 3): 1.89 ± 0.30 × 10^-4 | mean TGase/DNA × 10^-4 ± s.d ([1]; 2.5 × 10^-9 M (ROH line printed 2.5 × 10^-0 M), normalized to DNA, 72 hours, n = 3): 2.70 ± 0.59 × 10^-4 | activity at 0.25 µM ([1]; Homo sapiens, Keratinocyte, 72 h, 2.5 × 10^-7 M, normalized to DNA, 72 hours, n = 3, read-out: mean TGase/DNA (% control)): 47% | activity at 0.025 µM ([1]; Homo sapiens, Keratinocyte, 72 h, 2.5 × 10^-8 M, normalized to DNA, 72 hours, n = 3, read-out: mean TGase/DNA (% control)): 77% | activity at 0.0025 µM ([1]; Homo sapiens, Keratinocyte, 72 h, 2.5 × 10^-9 M (ROH line printed 2.5 × 10^-0 M), normalized to DNA, 72 hours, n = 3, read-out: mean TGase/DNA (% control)): > 100% | effect on keratinocyte TGase level / differentiation (in words) ([1]; listed as Retinol): significantly less effective than retinoic acid at inhibiting keratinocyte differentiation | effect on keratinocyte TGase level / differentiation (in words) ([1]; listed as retinol): The decrease in transglutaminase level was dose dependant for both retinoic acid and retinol
